Assay: relative permittivity at zero frequency (dimensionless); xn = mol fraction of the nth substance listed
Settings: 101 kPa, Liquid, impedance/gain phase analyzer

C[S+](C)[O-] [dimethyl sulfoxide] + O
relative permittivity at zero frequency
Settings | x1 = 0.1536 | x1 = 0.2496 | x1 = 0.3505 | x1 = 0.4975 | x1 = 0.5991 | x1 = 0.7039 | x1 = 0.7882 | x1 = 0.8297 | x1 = 0.9159 | x1 = 1
253.15 K | 91.94 | 88.58 | 84.04 | 76.79 | – | – | – | – | – | –
255.15 K | 91.25 | 87.74 | 83.36 | 76.23 | – | – | – | – | – | –
257.15 K | 90.45 | 86.97 | 82.67 | 75.63 | – | – | – | – | – | –
259.15 K | 89.61 | 86.2 | 82.03 | 75.1 | – | – | – | – | – | –
261.15 K | 88.8 | 85.42 | 81.31 | 74.51 | 69.37 | – | – | – | – | –
263.15 K | 87.94 | 84.64 | 80.65 | 73.97 | 68.84 | – | – | – | – | –
265.15 K | 87.11 | 83.94 | 79.97 | 73.39 | 68.38 | – | – | – | – | –
267.15 K | 86.34 | 83.09 | 79.33 | 72.86 | 67.89 | – | – | – | – | –
269.15 K | 85.49 | 82.43 | 78.71 | 72.29 | 67.37 | – | – | – | – | –
271.15 K | 84.69 | 81.68 | 78.01 | 71.63 | 66.92 | – | – | – | – | –
273.15 K | 83.99 | 80.92 | 77.39 | 71.06 | 66.4 | 60.97 | – | – | – | –
275.15 K | 83.16 | 80.24 | 76.74 | 70.47 | 65.94 | 60.58 | – | – | – | –
277.15 K | 82.38 | 79.52 | 75.92 | 69.92 | 65.48 | 60.19 | – | – | – | –
279.15 K | 81.7 | 78.75 | 75.25 | 69.35 | 65 | 59.84 | 56.06 | – | – | –
281.15 K | 80.98 | 78.14 | 74.63 | 68.84 | 64.52 | 59.46 | 55.83 | – | – | –
283.15 K | 80.31 | 77.42 | 74.04 | 68.36 | 64.1 | 59.05 | 55.54 | 53.95 | – | –
285.15 K | 79.54 | 76.72 | 73.46 | 67.82 | 63.61 | 58.67 | 55.2 | 53.67 | – | –
287.15 K | 78.93 | 76.14 | 72.79 | 67.3 | 63.09 | 58.31 | 54.84 | 53.38 | 50.53 | –
289.15 K | 78.19 | 75.4 | 72.06 | 66.67 | 62.58 | 57.91 | 54.52 | 53.01 | 50.3 | –
291.15 K | 77.43 | 74.76 | 71.47 | 66.13 | 62.13 | 57.57 | 54.21 | 52.68 | 50.06 | 47.15
293.15 K | 76.72 | 74.13 | 70.84 | 65.63 | 61.65 | 57.17 | 53.82 | 52.36 | 49.79 | 47.09
295.15 K | 75.97 | 73.52 | 70.29 | 65.13 | 61.23 | 56.81 | 53.45 | 52.06 | 49.53 | 46.84
297.15 K | 75.33 | 72.88 | 69.71 | 64.67 | 60.76 | 56.37 | 53.1 | 51.72 | 49.27 | 46.64
299.15 K | 74.63 | 72.11 | 69 | 64.12 | 60.32 | 55.99 | 52.77 | 51.42 | 49 | 46.39
301.15 K | 74.02 | 71.48 | 68.41 | 63.63 | 59.83 | 55.59 | 52.41 | 51 | 48.75 | 46.18
303.15 K | 73.34 | 70.83 | 67.88 | 63.07 | 59.38 | 55.21 | 52.03 | 50.7 | 48.48 | 45.94
305.15 K | 72.66 | 70.21 | 67.29 | 62.57 | 58.95 | 54.82 | 51.63 | 50.38 | 48.21 | 45.63
307.15 K | 72.02 | 69.63 | 66.63 | 62.12 | 58.51 | 54.47 | 51.27 | 50.04 | 47.94 | 45.39
309.15 K | 71.28 | 69.05 | 66.07 | 61.59 | 58.1 | 54.05 | 50.9 | 49.68 | 47.64 | 45.14
311.15 K | 70.73 | 68.39 | 65.52 | 61.06 | 57.64 | 53.66 | 50.51 | 49.39 | 47.35 | 44.88
313.15 K | 70.05 | 67.84 | 64.91 | 60.58 | 57.16 | 53.28 | 50.11 | 49.02 | 47.09 | 44.64
315.15 K | 69.51 | 67.3 | 64.33 | 60.13 | 56.72 | 52.92 | 49.73 | 48.67 | 46.85 | 44.34
317.15 K | 68.91 | 66.79 | 63.77 | 59.56 | 56.28 | 52.56 | 49.39 | 48.36 | 46.53 | 44.11
319.15 K | 68.26 | 66.18 | 63.12 | 59.12 | 55.79 | 52.15 | 49.09 | 48 | 46.26 | 43.87
321.15 K | 67.66 | 65.6 | 62.59 | 58.67 | 55.33 | 51.79 | 48.75 | 47.69 | 45.99 | 43.58
323.15 K | 67.01 | 65.07 | 62.03 | 58.11 | 54.85 | 51.43 | 48.37 | 47.33 | 45.72 | 43.31
325.15 K | 66.49 | 64.43 | 61.49 | 57.67 | 54.36 | 51.04 | 48.03 | 47 | 45.4 | 43.07
327.15 K | 65.83 | 63.89 | 60.98 | 57.18 | 54 | 50.64 | 47.64 | 46.66 | 45.12 | 42.78
329.15 K | 65.27 | 63.35 | 60.4 | 56.69 | 53.52 | 50.25 | 47.27 | 46.35 | 44.82 | 42.56
331.15 K | 64.72 | 62.78 | 59.87 | 56.23 | 53.03 | 49.87 | 46.94 | 45.99 | 44.53 | 42.27
333.15 K | 64.08 | 62.18 | 59.28 | 55.72 | 52.61 | 49.49 | 46.57 | 45.67 | 44.23 | 42

From the NIST ThermoML archive (doi:10.1021/je400149j)
